Test results published in patent publication US20200330446A1, “COMPOSITIONS AND METHODS OF TREATING SKIN FIBROTIC DISORDERS” (AIVIVA BIOPHARMA, INC., priority 2015, published 2020).
“Also recorded” adds a separate entry of the source.

What was measured:
TGF-β1 mRNA [1] = assay: TGF-β1 mRNA expression by qRT-PCR in rabbit ear wound sites; assay type: in vivo, New Zealand White rabbits; details: for Rabbit TGFB1 mRNA Expression Fold by Treatment Relative to Untreated Wounded (mean ± SD): rabbit ear wound sites, Treated (each drug), N 5 or 6, intradermal; for mean TGFb1 mRNA level after intradermal treatment, in words: rabbit ear, compared with the vehicle-treated wound
Experimental: (§1) Eight wounds were created on the ventral surface of the ears of each of New Zealand White rabbits using skin punch biopsies, and then the wounds were allowed to heal for approximately 2 weeks.
(§2) A dose (e.g., 1%) of axitinib, nintedanib, riociguat, sorafenib, sunitinib, and/or lenvatinib was administered into the dermal tissue, once every two weeks on two occasions. Again, the specific doses, treatment methods and schedules are for illustration only. One skilled in the art would appreciate that variations and modifications are possible to achieve similar results.
(§3) On Day 42 post wound, the rabbits were sacrificed and dermal tissues were collected for qualitative and quantitative evaluation using hematoxylin and eosin and Mason's Trichrome staining. In addition, TGF-β1 mRNA expression levels were measured using qRT-PCR.

[2] = tested on: full-thickness excision wounds on the dorsum of Yucatan minipigs; assay: Yucatan minipig full-thickness excision wound model, histologic evaluation (H&E, Mason's Trichrome); assay type: in vivo; details: for Fibroplasia; dermis, Average Scores / Neovascularization; dermis, Average Scores: minipig wound sites after two doses, Day 59 post wound, average of individual scores, scale 1 minimal to 5 severe
From the text: Porcine skin resembles human skin in many aspects. Both species have a relatively thick epidermis, distinct rete pegs, dermal papillae, and dense elastic fibers in the dermis. Furthermore, unlike rodents and rabbits, porcine skin is adherent to the subcutaneous structures, similar to human skin. Because of these anatomical similarities and other parallelisms in wound healing, porcine models have emerged as important foundations for the study of pathophysiology and potential treatment paradigms for abnormal wound healing. It has also been observed in porcine full-thickness wound healing in Yucatan Minipigs that the spatial and temporal expressions of TGF-β1, PDGF and VEGF were similar to the patterns for the growth factors described above. Therefore, the full-thickness excision models in Yucatan minipigs are the models for human wound healing studies.
(§4) In this experiment, multiple full-thickness excision wounds were made to the dorsum of Yucatan minipigs, and the wound sites were allowed to re-epithelialized adequately. At four weeks post-wound, the wound sites had normal to pink vascularity and had pliability. Epidermal hyperplasia was observed, as expected for regenerative responses in the full-thickness wounds.
(§5) On Day 28 post-wound, a dose (e.g., 1%) of axitinib, nintedanib, riociguat, sorafenib, sunitinib, and/or lenvatinib was administered into the dermal tissue at or around the wound sites, once every two weeks on two occasions. One wound site was left untreated as the control for each pig. Please note that the particular parameters in this example are only for illustration. One skilled in the art would appreciate that the dosages, administration methods, treatment regimen, and the administration sites may be varied to achieve similar results.
On Day 59 post wound, the minipigs were sacrificed and dermal tissues were collected for qualitative and quantitative evaluation using hematoxylin and eosin, and Mason's Trichrome staining. Dermal fibroplasia was characterized by increased numbers of fibroblasts in the dermis suspended in variable amounts of collagen in wounds.

[3] = tested on: rabbit ear hypertrophic scar; assay: Rabbit ear hypertrophic scar model, histologic evaluation (H&E, Mason's Trichrome); assay type: in vivo, New Zealand White rabbits; details: intradermal, Day 42 post wound, compared with untreated and vehicle-treated wound; for fibrosis of treated wound, in words / neovascularization of treated wound, in words: once every two weeks on two occasions
From the text: In rabbits, wounds are created down to the bare cartilage on the ventral surface of the ear using a dermal biopsy punch. […] By both appearance and histological analysis, these scars resemble human hypertrophic scars. In this established model, it was shown that reduced TGF-β expression results in reduced scarring, which is consistent with the current understanding of the pathogenesis of excessive scarring/dermal fibrosis. […] Thus, this rabbit model was also used to assess the compounds of the invention.
as §1, §2, §3
Histologic slides for hematoxylin and eosin stainings were prepared from the wound sites. Tissues were evaluated qualitatively for inflammation, neovascularization, granulation tissue, degrees of re-epithelialization, and degrees of scarring (avascular collagen).

TGF-β1 mRNA [4] = assay: TGF-β1 mRNA expression by qRT-PCR in Yucatan pig skin wound sites; assay type: in vivo, Yucatan minipigs; details: minipig; compared to unwounded normal skin
From the text: as §4, §5
In addition, total mRNA was isolated from skin biopsies of the treated wound sites and the untreated unwounded sites of the pigs. The mRNA samples were used to prepare cDNA and analyzed via qRT-PCR. The TGF-β1 expression levels were assessed using beta actin as a reference gene.

[5] = minipig, two biweekly treatments, histopathology relative to the untreated wound

Structure (SMILES) | Rabbit TGFB1 mRNA Expression Fold by Treatment Relative to Untreated Wounded (mean ± SD) (TGF-β1 mRNA [1]) [Fold] | Fibroplasia; dermis, Average Scores [2] | Neovascularization; dermis, Average Scores [2] | mean TGFb1 mRNA level after intradermal treatment, in words (TGF-β1 mRNA [1]) | re-epithelialization of treated wound, in words [3] | fibrosis of treated wound, in words [3] | neovascularization of treated wound, in words [3] | TGF-β1 mRNA expression level at treated wounds, in words (TGF-β1 mRNA [4]) | dermal fibroplasia / fibrosis at treated wound, in words [2, 5] | neovascularization at treated wound, in words [2, 5] | scar tissues of treated wound, in words [3]
CNC(=O)c1ccccc1Sc1ccc2c(/C=C/c3ccccn3)n[nH]c2c1 [axitinib] | 0.87 ± 0.28 | (2.33) | (1.67) | – | – | – | – | – | – | – | –
COc1cc2nccc(Oc3ccc(NC(=O)NC4CC4)c(Cl)c3)c2cc1C(N)=O [lenvatinib] | 0.66 ± 0.25 | (3.00) | (2.33) | lower | similar | similar | similar | – | – | – | –
COC(=O)c1ccc2c(c1)NC(=O)/C2=C(\Nc1ccc(N(C)C(=O)CN2CCN(C)CC2)cc1)c1ccccc1 [nintedanib] | 0.73 ± 0.13 | (2.33) | (1.67) | lower | – | decreased | decreased; also recorded: much less | most effective | reduced | noticeably reduced | less
COC(=O)N(C)c1c(N)nc(-c2nn(Cc3ccccc3F)c3ncccc23)nc1N [riociguat] | 1.14 ± 0.14 | (2.67) | (2.67) | – | – | slightly decreased | slightly decreased | most effective | – | – | –
CNC(=O)c1cc(Oc2ccc(NC(=O)Nc3ccc(Cl)c(C(F)(F)F)c3)cc2)ccn1 [sorafenib] | 0.87 ± 0.13 | (3.00) | (2.33) | lower | – | – | slightly increased | most effective | – | – | –
CCN(CC)CCNC(=O)c1c(C)[nH]c(/C=C2\C(=O)Nc3ccc(F)cc32)c1C [sunitinib] | 0.76 ± 0.23 | (2.67) | (2.33) | – | – | – | – | – | – | – | –
